Assay results taken from the NIST ThermoML archive (doi:10.1007/s10765-011-1149-x).

Experiment: xn = mol fraction of the nth substance listed
Conditions: 101 kPa, Liquid, Vibrating tube method

Cc1cc(C)nc(C)c1 [2,4,6-trimethylpyridine] + CO
Conditions | mass density [kg/m3]
276.15 K, x1 = 0.0204 | 816.99
276.15 K, x1 = 0.0511 | 830.47
276.15 K, x1 = 0.0997 | 848.99
276.15 K, x1 = 0.194 | 875.69
276.15 K, x1 = 0.2957 | 895.63
276.15 K, x1 = 0.3884 | 907.79
276.15 K, x1 = 0.489 | 916.36
276.15 K, x1 = 0.5852 | 921.51
276.15 K, x1 = 0.6949 | 925.01
276.15 K, x1 = 0.7971 | 926.99
276.15 K, x1 = 0.8889 | 928.16
276.15 K, x1 = 1 | 928.45
277.15 K, x1 = 0.0204 | 816.06
277.15 K, x1 = 0.0511 | 829.54
277.15 K, x1 = 0.0997 | 848.07
277.15 K, x1 = 0.194 | 874.77
277.15 K, x1 = 0.2957 | 894.71
277.15 K, x1 = 0.3884 | 906.88
277.15 K, x1 = 0.489 | 915.47
277.15 K, x1 = 0.5852 | 920.64
277.15 K, x1 = 0.6949 | 924.15
277.15 K, x1 = 0.7971 | 926.14
277.15 K, x1 = 0.8889 | 927.31
277.15 K, x1 = 1 | 927.61
283.14 K, x1 = 0.2957 | 889.2
283.14 K, x1 = 0.3884 | 901.42
283.14 K, x1 = 0.5852 | 915.35
283.14 K, x1 = 0.7971 | 921.01
283.15 K, x1 = 0.0204 | 810.47
283.15 K, x1 = 0.0511 | 823.96
283.15 K, x1 = 0.0997 | 842.5
283.15 K, x1 = 0.194 | 869.23
283.15 K, x1 = 0.489 | 910.1
283.15 K, x1 = 0.6949 | 918.95
283.15 K, x1 = 0.8889 | 922.22
283.15 K, x1 = 1 | 922.54
288.15 K, x1 = 0.0204 | 805.79
288.15 K, x1 = 0.0511 | 819.3
288.15 K, x1 = 0.0997 | 837.86
288.15 K, x1 = 0.194 | 864.59
288.15 K, x1 = 0.2957 | 884.59
288.15 K, x1 = 0.3884 | 896.86
288.15 K, x1 = 0.489 | 905.6
288.15 K, x1 = 0.5852 | 910.93
288.15 K, x1 = 0.6949 | 914.61
288.15 K, x1 = 0.7971 | 916.72
288.15 K, x1 = 0.8889 | 917.96
288.15 K, x1 = 1 | 918.32
293.14 K, x1 = 0.0997 | 833.2
293.14 K, x1 = 1 | 914.08
293.15 K, x1 = 0.0204 | 801.11
293.15 K, x1 = 0.0511 | 814.63
293.15 K, x1 = 0.194 | 859.94
293.15 K, x1 = 0.2957 | 879.97
293.15 K, x1 = 0.3884 | 892.28
293.15 K, x1 = 0.489 | 901.1
293.15 K, x1 = 0.5852 | 906.5
293.15 K, x1 = 0.6949 | 910.25
293.15 K, x1 = 0.7971 | 912.41
293.15 K, x1 = 0.8889 | 913.69
298.14 K, x1 = 0.0511 | 809.94
298.14 K, x1 = 0.6949 | 905.88
298.14 K, x1 = 0.8889 | 909.41
298.15 K, x1 = 0.0204 | 796.41
298.15 K, x1 = 0.0997 | 828.52
298.15 K, x1 = 0.194 | 855.28
298.15 K, x1 = 0.2957 | 875.33
298.15 K, x1 = 0.3884 | 887.69
298.15 K, x1 = 0.489 | 896.57
298.15 K, x1 = 0.5852 | 902.05
298.15 K, x1 = 0.7971 | 908.1
298.15 K, x1 = 1 | 909.84
303.14 K, x1 = 0.7971 | 903.77
303.14 K, x1 = 0.8889 | 905.12
303.15 K, x1 = 0.0204 | 791.7
303.15 K, x1 = 0.0511 | 805.24
303.15 K, x1 = 0.0997 | 823.83
303.15 K, x1 = 0.194 | 850.6
303.15 K, x1 = 0.2957 | 870.67
303.15 K, x1 = 0.3884 | 883.08
303.15 K, x1 = 0.489 | 892.04
303.15 K, x1 = 0.5852 | 897.58
303.15 K, x1 = 0.6949 | 901.49
303.15 K, x1 = 1 | 905.58
308.14 K, x1 = 0.0997 | 819.11
308.14 K, x1 = 0.194 | 845.89
308.14 K, x1 = 0.3884 | 878.45
308.14 K, x1 = 0.489 | 887.48
308.14 K, x1 = 0.5852 | 893.1
308.14 K, x1 = 0.6949 | 897.08
308.14 K, x1 = 0.7971 | 899.42
308.15 K, x1 = 0.0204 | 786.96
308.15 K, x1 = 0.0511 | 800.51
308.15 K, x1 = 0.2957 | 865.99
308.15 K, x1 = 0.8889 | 900.82
308.15 K, x1 = 1 | 901.31
313.14 K, x1 = 0.0204 | 782.2
313.14 K, x1 = 0.0511 | 795.75
313.14 K, x1 = 0.0997 | 814.36
313.14 K, x1 = 0.489 | 882.9
313.14 K, x1 = 0.6949 | 892.65
313.15 K, x1 = 0.194 | 841.15
313.15 K, x1 = 0.2957 | 861.28
313.15 K, x1 = 0.3884 | 873.79
313.15 K, x1 = 0.5852 | 888.59
313.15 K, x1 = 0.7971 | 895.05
313.15 K, x1 = 0.8889 | 896.49
313.15 K, x1 = 1 | 897.03

Cc1cc(C)nc(C)c1 [2,4,6-trimethylpyridine] + OCCO
Conditions | mass density [kg/m3]
276.15 K, x1 = 0.0227 | 1116.64
276.15 K, x1 = 0.0509 | 1106.81
276.15 K, x1 = 0.1024 | 1090.72
276.15 K, x1 = 0.1996 | 1065.35
276.15 K, x1 = 0.2983 | 1043.61
276.15 K, x1 = 0.4014 | 1024.29
276.15 K, x1 = 0.4958 | 1008.47
276.15 K, x1 = 0.5984 | 991.05
276.15 K, x1 = 0.6974 | 975.68
276.15 K, x1 = 0.7927 | 959.81
276.15 K, x1 = 0.8896 | 944.84
277.15 K, x1 = 0.0227 | 1115.94
277.15 K, x1 = 0.0509 | 1106.1
277.15 K, x1 = 0.1996 | 1064.61
277.15 K, x1 = 0.2983 | 1042.81
277.15 K, x1 = 0.4014 | 1023.47
277.15 K, x1 = 0.4958 | 1007.63
277.15 K, x1 = 0.5984 | 990.18
277.15 K, x1 = 0.6974 | 974.81
277.15 K, x1 = 0.7927 | 958.95
277.15 K, x1 = 0.8896 | 944
277.16 K, x1 = 0.1024 | 1090
283.15 K, x1 = 0.0227 | 1111.72
283.15 K, x1 = 0.0509 | 1101.82
283.15 K, x1 = 0.1996 | 1060.1
283.15 K, x1 = 0.2983 | 1038.02
283.15 K, x1 = 0.4014 | 1018.5
283.15 K, x1 = 0.5984 | 985
283.15 K, x1 = 0.7927 | 953.81
283.15 K, x1 = 0.8896 | 938.89
283.16 K, x1 = 0.1024 | 1085.61
283.16 K, x1 = 0.4958 | 1002.53
283.16 K, x1 = 0.6974 | 969.63
288.15 K, x1 = 0.0227 | 1108.21
288.15 K, x1 = 0.0509 | 1098.26
288.15 K, x1 = 0.1024 | 1081.94
288.15 K, x1 = 0.1996 | 1056.23
288.15 K, x1 = 0.2983 | 1034.02
288.15 K, x1 = 0.4014 | 1014.34
288.15 K, x1 = 0.4958 | 998.27
288.15 K, x1 = 0.5984 | 980.68
288.15 K, x1 = 0.6974 | 965.31
288.15 K, x1 = 0.7927 | 949.52
288.15 K, x1 = 0.8896 | 934.64
293.14 K, x1 = 0.1024 | 1078.26
293.15 K, x1 = 0.0227 | 1104.68
293.15 K, x1 = 0.0509 | 1094.67
293.15 K, x1 = 0.1996 | 1052.33
293.15 K, x1 = 0.2983 | 1029.98
293.15 K, x1 = 0.4014 | 1010.15
293.15 K, x1 = 0.4958 | 993.97
293.15 K, x1 = 0.5984 | 976.33
293.15 K, x1 = 0.6974 | 960.96
293.15 K, x1 = 0.7927 | 945.2
293.15 K, x1 = 0.8896 | 930.36
298.14 K, x1 = 0.0227 | 1101.13
298.14 K, x1 = 0.0509 | 1091.07
298.14 K, x1 = 0.1024 | 1074.55
298.14 K, x1 = 0.2983 | 1025.93
298.14 K, x1 = 0.4958 | 989.66
298.14 K, x1 = 0.8896 | 926.07
298.15 K, x1 = 0.1996 | 1048.43
298.15 K, x1 = 0.4014 | 1005.94
298.15 K, x1 = 0.5984 | 971.96
298.15 K, x1 = 0.6974 | 956.59
298.15 K, x1 = 0.7927 | 940.86
303.15 K, x1 = 0.0227 | 1097.58
303.15 K, x1 = 0.0509 | 1087.45
303.15 K, x1 = 0.1024 | 1070.84
303.15 K, x1 = 0.1996 | 1044.52
303.15 K, x1 = 0.2983 | 1021.84
303.15 K, x1 = 0.4014 | 1001.71
303.15 K, x1 = 0.4958 | 985.33
303.15 K, x1 = 0.5984 | 967.57
303.15 K, x1 = 0.6974 | 952.2
303.15 K, x1 = 0.7927 | 936.51
303.15 K, x1 = 0.8896 | 921.76
308.14 K, x1 = 0.4014 | 997.46
308.14 K, x1 = 0.5984 | 963.16
308.15 K, x1 = 0.0227 | 1094.01
308.15 K, x1 = 0.0509 | 1083.83
308.15 K, x1 = 0.1024 | 1067.1
308.15 K, x1 = 0.1996 | 1040.64
308.15 K, x1 = 0.2983 | 1017.74
308.15 K, x1 = 0.4958 | 980.98
308.15 K, x1 = 0.6974 | 947.78
308.15 K, x1 = 0.7927 | 932.13
308.15 K, x1 = 0.8896 | 917.43
313.14 K, x1 = 0.1024 | 1063.34
313.14 K, x1 = 0.1996 | 1036.74
313.14 K, x1 = 0.2983 | 1013.62
313.14 K, x1 = 0.4014 | 993.19
313.14 K, x1 = 0.4958 | 976.61
313.14 K, x1 = 0.5984 | 958.73
313.15 K, x1 = 0.0227 | 1090.43
313.15 K, x1 = 0.0509 | 1080.18
313.15 K, x1 = 0.6974 | 943.35
313.15 K, x1 = 0.7927 | 927.74
313.15 K, x1 = 0.8896 | 913.09
